Assay: HPLC analysis of oil (top) and aqueous (bottom) layers of centrifuged O/W emulsions
Assay type: physicochemical
Conditions: control or Bottom layer-Water; target 8.00 mg/mL
Description: O/W emulsions were prepared by combining the hydrophobic phase (DPX-empty in Montanide™ ISA 51 oil) and the aqueous phase (containing an aqueous phase agent) with 120 passes through a Vygon™ connector.
For analysis by High Performance Liquid Chromatography (HPLC), the O/W emulsion formulations were centrifuged at 15,000 RPM for 30 minutes to separate oil (top) and aqueous (bottom) layers, and samples from both layers were analysed. Samples were prepared using n-Butanol Extraction method (for oil phase) and Total solubilization method (for aqueous phase). n-Butanol Extraction method (for oil phase): To 100 μL of the top layer oil sample 300 μL of 0.1M NaHCO3 and 400 μL of water saturated 1-Butanol were added. Sample was vortexed to mix and centrifuged for 2 mins at 5000 RPM. The bottom layer was taken for analysis. Total solubilization method (for aqueous phase): To 75 μL of the bottom layer aqueous sample, up to 5 mL of mobile phase A was added. The mobile phases used for cyclophosphamide, oligonucleotide and anti-CTLA4 analysis were as follows, Cyclophosphamide: Mobile Phase A: 30% acetonitrile in water; Mobile Phase B: methanol. Oligonucleotide: Mobile Phase A: mix of tris, acetonitrile, water; Mobile Phase B: mix of tris, NaCL, acetonitrile, water. Anti-CTLA4: Mobile Phase A: 0.1% TFA/water; Mobile Phase B: 0.1% TFA/acetonitrile; Mobile Phase C: methanol. […]

Structure (SMILES): O=P1(N(CCCl)CCCl)NCCCO1 (stereo not shown) [Cyclophosphamide control, N,N-bis(2-chloroethyl)-1,3,2-oxazaphosphinan-2-amine 2-oxide]
- Cyclophosphamide Concentration: 6.76 mg/mL

Reference: patent US20230000769A1, “OIL-IN-WATER EMULSION FORMULATIONS FOR DELIVERY OF ACTIVE OR THERAPEUTIC AGENTS” (IMMUNOVACCINE TECHNOLOGIES INC., priority 2019, published 2023)
